Measurements as given in patent US9771366B2, “Substituted tetrahydropyrido[3′,2′:4,5]pyrrolo[1,2-a]pyrazine-2-carboxamides as RSK inhibitors” (Phoenix Molecular Designs, priority 2016, dated 2017).

Assays:
RSK1 = RSK1 (Homo sapiens (Human), UniProt Q15418); assay: Radioisotope kinase assay (SignalChem), RSK1; assay type: biochemical
Experimental: (§1) Radioisotope assays (SignalChem) were performed for the evaluation of the kinase target profiling and all assays were performed in a designated radioactive working area. The kinase targets were RSK1, RSK2, RSK3, RSK4 and MK2. The kinase assays (in duplicate) were performed at 30° C. for 15 minutes in a final volume of 25 μL according to the following assay reaction recipe: • Component 1: 5 μL of diluted active kinase target (100 ng per reaction) • Component 2: 5 μL of peptide substrate (0.5 μg per reaction) (for RSK1, RSK2, RSK3 and RSK4, RSK S6K substrate was used; for MK2, HSP27tide was used) • Component 3: 5 μL of kinase assay buffer • Component 4: 5 μL of compound described herein (various concentrations: 0, 0.1, 1, 10, 100 or 1000 nM or 1, 3, 10, 30, 100, 300 nM) • Component 5: 5 μL of ^33P-ATP (5 μM stock solution, 0.8 μCi; […])
(§2) The assay was initiated by the addition of ^33P-ATP and the reaction mixture incubated at 30° C. for 15 minutes. […] The radioactivity on the P81 plate was counted in the presence of scintillation fluid in a Trilux scintillation counter.
(§3) Blank controls were set up for each target kinase which included all the assay components except the addition of the appropriate substrate (which was replaced with equal volume of assay dilution buffer). The corrected activity for each target kinase was determined by removing the blank control value.

RSK3 = RSK3 (Homo sapiens (Human), UniProt Q15349); assay: Radioisotope kinase assay (SignalChem), RSK3; assay type: biochemical
Chain of RSK3 (Q15349 whole entry): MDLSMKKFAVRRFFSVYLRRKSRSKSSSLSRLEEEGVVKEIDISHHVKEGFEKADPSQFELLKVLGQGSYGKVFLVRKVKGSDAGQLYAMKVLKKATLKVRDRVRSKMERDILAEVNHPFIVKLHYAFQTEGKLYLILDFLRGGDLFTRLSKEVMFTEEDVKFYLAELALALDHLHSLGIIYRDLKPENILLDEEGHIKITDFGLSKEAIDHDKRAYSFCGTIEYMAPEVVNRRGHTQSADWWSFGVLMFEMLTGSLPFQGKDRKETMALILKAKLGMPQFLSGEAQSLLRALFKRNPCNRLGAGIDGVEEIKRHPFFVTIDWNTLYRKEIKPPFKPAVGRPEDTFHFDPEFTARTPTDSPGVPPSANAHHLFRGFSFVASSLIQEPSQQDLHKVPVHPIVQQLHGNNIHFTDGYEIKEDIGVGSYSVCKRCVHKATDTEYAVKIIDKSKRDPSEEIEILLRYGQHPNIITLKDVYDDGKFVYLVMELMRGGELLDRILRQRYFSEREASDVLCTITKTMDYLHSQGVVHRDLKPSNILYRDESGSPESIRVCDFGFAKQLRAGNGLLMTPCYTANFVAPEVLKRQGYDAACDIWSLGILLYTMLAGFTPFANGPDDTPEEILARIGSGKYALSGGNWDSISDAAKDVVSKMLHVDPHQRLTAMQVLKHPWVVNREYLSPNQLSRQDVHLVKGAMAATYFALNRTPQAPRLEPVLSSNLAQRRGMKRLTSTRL
Experimental: as §1, §2, §3

RSK4 = RSK4 (Homo sapiens (Human), UniProt Q9UK32); assay: Radioisotope kinase assay (SignalChem), RSK4; assay type: biochemical
Chain of RSK4 (Q9UK32 whole entry): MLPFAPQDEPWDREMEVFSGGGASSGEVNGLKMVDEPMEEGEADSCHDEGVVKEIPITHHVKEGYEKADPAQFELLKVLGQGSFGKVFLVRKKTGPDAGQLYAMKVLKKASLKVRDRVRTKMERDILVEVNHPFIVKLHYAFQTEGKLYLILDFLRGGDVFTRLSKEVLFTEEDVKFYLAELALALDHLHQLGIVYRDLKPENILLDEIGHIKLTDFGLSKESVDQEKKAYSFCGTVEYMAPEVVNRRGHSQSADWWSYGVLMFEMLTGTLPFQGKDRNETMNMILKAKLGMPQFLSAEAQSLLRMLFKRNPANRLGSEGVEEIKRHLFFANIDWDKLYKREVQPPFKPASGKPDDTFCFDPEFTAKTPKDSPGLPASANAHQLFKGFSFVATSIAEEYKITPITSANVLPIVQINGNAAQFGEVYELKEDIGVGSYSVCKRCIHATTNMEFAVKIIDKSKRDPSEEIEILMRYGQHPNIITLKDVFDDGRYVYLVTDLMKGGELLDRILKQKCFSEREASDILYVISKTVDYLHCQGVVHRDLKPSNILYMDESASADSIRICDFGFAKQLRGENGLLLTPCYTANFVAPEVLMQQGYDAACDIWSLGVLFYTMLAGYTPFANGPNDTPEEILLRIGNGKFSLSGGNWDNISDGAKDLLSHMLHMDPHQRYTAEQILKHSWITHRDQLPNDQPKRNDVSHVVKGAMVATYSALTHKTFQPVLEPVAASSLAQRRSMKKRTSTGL
Experimental: as §1, §2, §3

RSK2 = RSK2 (Homo sapiens (Human), UniProt P51812); assay: Radioisotope kinase assay (SignalChem), RSK2; assay type: biochemical
Chain of RSK2 (P51812 whole entry): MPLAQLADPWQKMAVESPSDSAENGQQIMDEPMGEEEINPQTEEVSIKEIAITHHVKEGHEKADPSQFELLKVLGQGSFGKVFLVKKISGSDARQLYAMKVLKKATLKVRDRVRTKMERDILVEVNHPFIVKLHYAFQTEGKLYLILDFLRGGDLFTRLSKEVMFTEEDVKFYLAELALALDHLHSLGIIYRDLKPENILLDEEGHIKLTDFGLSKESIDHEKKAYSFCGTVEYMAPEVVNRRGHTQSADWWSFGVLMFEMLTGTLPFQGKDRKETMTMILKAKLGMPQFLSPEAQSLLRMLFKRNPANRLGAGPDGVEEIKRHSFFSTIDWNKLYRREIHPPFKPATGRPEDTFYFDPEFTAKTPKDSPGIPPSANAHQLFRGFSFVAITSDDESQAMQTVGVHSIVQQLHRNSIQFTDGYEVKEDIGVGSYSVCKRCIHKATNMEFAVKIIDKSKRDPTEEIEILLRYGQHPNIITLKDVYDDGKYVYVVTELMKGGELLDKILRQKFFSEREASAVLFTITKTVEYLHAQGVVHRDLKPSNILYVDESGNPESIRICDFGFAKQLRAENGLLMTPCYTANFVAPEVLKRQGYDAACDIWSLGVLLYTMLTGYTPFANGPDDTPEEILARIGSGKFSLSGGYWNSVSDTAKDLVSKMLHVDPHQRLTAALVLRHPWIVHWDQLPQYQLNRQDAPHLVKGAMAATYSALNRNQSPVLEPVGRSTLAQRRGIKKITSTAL
Experimental: The assay conditions for the RSK2 kinase target were optimized to yield acceptable enzymatic activity. In addition, the assays were optimized to give high signal-to-noise ratio.
Radioisotope assays (SignalChem) were performed for the evaluation of the kinase target profiling and all assays were performed in a designated radioactive working area. The kinase targets were RSK1, RSK2, RSK3, RSK4 and MK2.
The assay was initiated by the addition of ^33P-ATP and the reaction mixture incubated at 30° C. for 15 minutes. After the incubation period, the assay was terminated by spotting 10 μL of the reaction mixture onto Multiscreen phosphocellulose P81 plate. The Multiscreen phosphocellulose P81 plate was washed 3 times for approximately 15 minutes each in a 1% phosphoric acid solution. The radioactivity on the P81 plate was counted in the presence of scintillation fluid in a Trilux scintillation counter.
as §3

[1] = Colony forming unit hematopoietic stem cell assay; assay type: cell-based, human; details: human, CD34+ cells from human cord blood or peripheral blood; at 3.8 uM; read-out: cells viable in the HSC assay
Experimental: The hematopoietic colony forming cell assay was conducted based on a protocol outlined by StemCell Technologies. […] Following the addition of CD34^+ cells isolated from human cord blood or peripheral blood (StemCell Technologies) at a final concentration of 5×10^2 cells per dish, the tubes were vortexed and allowed to stand for 5 minutes at room temperature. Next, the MethoCult mixtures were dispensed into 35 mm dishes (Corning Incorporated) through blunt end needles (StemCell Technologies) and 5 ml syringes (BD Biosciences) at a volume of 1.1 ml per dish. The medium was evenly distributed across the surface of each dish by gentle tilting and rotation. The dishes were then placed in a 100 mm culture dish (Grenier Bio-One) containing additional 35 mm dishes with sterile water to maintain humidity. The culture dish was then placed at 37° C. in a humidified incubator containing 5% CO2 for 13 days. The number of myeloid and erythroid derived colonies in both the treated and control dishes were counted and compared.

[2] = Solubility assessment at 20 mg/ml; assay type: physicochemical; details: for 20 mg/ml Solubility: dissolved in DMSO, diluted in DMEM
Experimental: Solubility is an important property for therapeutic drug candidates. Poor solubility can lead to low bioavailability resulting in suboptimal drug delivery. It can also prevent the evaluation of test agents in animals because the concentration(s) needed to achieve the desired effect cannot be achieved to poor solubility. For solubility assessments, small molecules targeting RSK were compared. For these assessments, 100 mM solutions of the compounds dissolved in DMSO were diluted in DMEM growth media (Life Technologies) supplemented with fetal bovine serum (FBS, Life Technologies) and 100 units/ml penicillin and 100 units/ml streptomycin (Life Technologies) to make 20 mg/ml solutions. Once diluted, the solutions were vortexed and examined for the formation of precipitates. […] For Compound 26, a 100 mM solution of the compound dissolved in DMSO was diluted in phosphate buffered saline (Life Technologies) to make a 20 mg/ml solution. The stock of […] was chosen because this is the upper end of what would be required to dose mice for a range of studies including MTD, PK, PD and efficacy. The pH of this solution was determined to be 2, as previously described. […] At high concentrations some RSK inhibitors were highly soluble while others were not. Compound 0 is (R)—N-(1-benzyl-1H-pyrazol-4-yl)-9-methyl-6-oxo-6,7,8,9-tetrahydropyrido[3′,2′:4,5]pyrrolo[1,2-a]pyrazine-2-carboxamide. Compound 0 was not soluble, whereas Compounds 18, 20, 21, 25 and 26 were soluble under the same conditions (Table 5).

CIITA mRNA = assay: Immuno-oncology: CIITA mRNA expression; assay type: cell-based, Human; details: MDA-MB-231 and JIMT-1 cells; Compound 16 2 or 4 uM, Compound 18 1, 2, or 4 uM
Source text: (§4) A key feature of cancer is low immunogenicity. This can occur by several mechanisms that allow the cells to escape immune recognition. […] HLA-DRA is a member of MHC-II genes and CIITA is the master regulator of MHC II transcription. Thus it was surprising that CIITA, which would be expected to regulate MHC II gene expression, was not altered by RSK inhibition. […] HLA-DRA is important for immune recognition while PD-L1 is involved in immune checkpoints.

HLA-DRA mRNA = assay: Immuno-oncology: HLA-DRA mRNA expression; assay type: cell-based, Human; details: MDA-MB-231 and JIMT-1 cells; Compound 16 2 or 4 uM, Compound 18 1, 2, or 4 uM
Source text: as §4

[3] = system: CD274, the gene that encodes PD-L1; assay: Immuno-oncology: CD274 expression in MDA-MB-231 cells; assay type: cell-based, Human; details: Compound 16 2 or 4 uM, Compound 18 1, 2 or 4 uM
Source text: as §4

[4] = system: CD274, the gene that encodes PD-L1; assay: Immuno-oncology: CD274 expression in JIMT-1 cells; assay type: cell-based, Human; details: 1-20 uM
Source text: as §4

[5] = system: phosphorylated Y-box binding protein-1 (YB-1) at serine 102 (P—YB-1S102); assay: Immunoblotting of phosphorylated YB-1 in MDA-MB-231 cells
Experimental: Following desired experimental conditions, breast cancer cell lines grown and treated in 6 well plates or 100 mm culture dishes (Grenier Bio-One) were placed on ice and the supernatant from each well was removed and the cells were washed in cold PBS. Following removal of PBS, cells were exposed to radioimmunoprecipitation assay (RIPA) buffer (50 mM Tris-HCl (pH 8), 150 mM NaCl, 1% NP-40, 0.5% sodium deoxycholate, 0.1% SDS; Fisher Scientific) supplemented with 1% phosphatase inhibitor (Fisher Scientific) and 1% protease inhibitor (Fisher Scientific) for 10 minutes. Samples were transferred to eppendorf tubes, vortexed and then centrifuged at 14 000 rpm for 10 minutes. Supernatants were collected as whole cell lysates. For mouse tumour tissues, each sample was place in a 35 mm culture dish with complete RIPA lysis buffer. The samples were diced in the buffer on ice with a sterile scalpel (VWR) and the buffer and tissue were transferred to an eppendorf tube. The samples were left on ice for 10 minutes with periodic vortexing every 2 to 3 minutes. The samples were then transferred to a Qiashredder (Qiagen) and centrifuged at 14 000 rpm for 2 minutes. The flow through was transferred to a new eppendorf tube and the samples were centrifuged again at 14 000 rpm for 5 minutes. Supernatants were collected as whole cell lysates.
For the majority of experiments in this study, 30 μg of protein per well was loaded. Samples were then resolved on SDS-PAGE (polyacrylamide gel electrophoresis) using various percentages of acrylamide gels (8%-12%), depending on the proteins of interest. […] For certain immunoblots, bands of proteins of interest were scanned and band intensity ratios were determined by densitometric analysis (ImageJ). […] To assess whether cells are actively undergoing cell death, the activity of poly ADP ribose polymerase (PARP) (1:1000 CST) was also measured using the immunoblotting method.

[6] = system: All cell lines of Tables 6A and 6B; assay: Monolayer growth inhibition, Alamar blue, range over all cell lines; assay type: cell-based; details: 120 h, read-out: IC50 Values - Alamar Blue (5 Days), Range
Experimental: 1×10^3 cells per well were seeded for a final volume of 200 μl per well and plates were incubated for 5 days at 37° C. in a humidified incubator with 5% CO2. Following the incubation period, cell survival was quantified by Alamar blue assay (Life Technologies). Briefly, media from each well was replaced with 100 μl of phosphate buffer saline (PBS, Life Technologies) and cells were incubated with 5% Alamar blue, which incorporates a propriety redox indicator that changes colour in response to metabolic activity, for up to 2 hours. During this period of incubation, the absorbance at 570 nm and 600 nm was measured at various time points, depending on the cell line or sample. Percent survival was calculated by comparing the absorbance ratio of the test well to the control well multiplied by 100%, as indicated in the following formula:

[7] = system: All cell lines of Tables 7A and 7B; assay: Monolayer growth inhibition, crystal violet, range over all cell lines; assay type: cell-based; details: 120 h, read-out: IC50 Values - Crystal Violet (5 Days), Range

Chain of RSK1 (Q15418 whole entry): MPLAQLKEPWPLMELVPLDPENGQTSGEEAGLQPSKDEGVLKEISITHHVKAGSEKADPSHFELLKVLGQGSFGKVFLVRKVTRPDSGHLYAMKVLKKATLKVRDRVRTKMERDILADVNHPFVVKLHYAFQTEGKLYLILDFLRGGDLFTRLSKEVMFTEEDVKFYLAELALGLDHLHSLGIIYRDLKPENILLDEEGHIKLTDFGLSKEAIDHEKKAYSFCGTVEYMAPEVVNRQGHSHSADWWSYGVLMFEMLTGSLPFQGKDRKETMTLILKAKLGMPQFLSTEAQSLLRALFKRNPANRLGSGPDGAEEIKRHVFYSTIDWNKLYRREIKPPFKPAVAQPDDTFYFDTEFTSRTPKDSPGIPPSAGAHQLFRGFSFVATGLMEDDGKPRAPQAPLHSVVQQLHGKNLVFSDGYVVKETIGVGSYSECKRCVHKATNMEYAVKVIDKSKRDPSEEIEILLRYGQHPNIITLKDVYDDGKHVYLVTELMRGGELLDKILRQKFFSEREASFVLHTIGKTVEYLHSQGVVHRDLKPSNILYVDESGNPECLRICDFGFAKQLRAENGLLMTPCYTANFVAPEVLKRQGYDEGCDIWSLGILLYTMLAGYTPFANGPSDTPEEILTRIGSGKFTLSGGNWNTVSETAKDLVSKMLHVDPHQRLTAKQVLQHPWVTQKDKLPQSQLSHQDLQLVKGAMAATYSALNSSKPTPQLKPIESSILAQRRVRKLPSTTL

Compound | IC50 (RSK1) [µM] | IC50 (RSK3) [µM] | IC50 (RSK4) [µM] | IC50 (RSK2) [µM] | viability at 13 days, […] [1] [%] | pH ([2]; 20 mg/ml solution, DMSO diluted in DMEM) | 20 mg/ml Solubility [2] | mRNA expression of CIITA (CIITA mRNA) | levels of HLA-DRA mRNA (HLA-DRA mRNA) | levels of CD274 [3] | CD274 [4] | loss of P—YB-1 ([5]; MDA-MB-231, 0.01, 0.1, 1, or 10 uM, 24 hrs) | loss of P—YB-1 ([5]; MDA-MB-231, 0.01-1 uM, 96 hrs) | IC50 [6] [µM] | IC50 [7] [µM]
C[C@@H]1CNC(=O)c2cc3ccc(NC(=O)c4cnn(Cc5ccccc5)c4)nc3n21 [Compound 15, (R)-1-benzyl-N-(9-methyl-6-oxo-6,7,8,9-tetrahydropyrido[3′,2′:4,5]pyrrolo[1,2-a]pyrazin-2-yl)-1H-pyrazole-4-carboxamide] | 0.0236 | 0.006 | 0.008 | 0.094 | 100 |  |  |  |  |  |  |  |  |  | 
C[C@@H]1CNC(=O)c2cc3ccc(C(=O)Nc4cnn(Cc5ccc(N)cc5)c4)nc3n21 [Compound 18, (R)—N-(1-(4-aminobenzyl)-1H-pyrazol-4-yl)-9-methyl-6-oxo-6,7,8,9-tetrahydropyrido[3′,2′:4,5]pyrrolo[1,2-a]pyrazine-2-carboxamide] | 0.002 | 0.0017 | 0.0003 | 0.012 |  | 9 | Soluble | little effect | elevated | reduced | inhibited | dose dependent loss | dose dependent loss |  | 
C[C@@H]1CNC(=O)c2cc3ccc(C(=O)Nc4cnn(Cc5ccc(F)cc5F)c4)nc3n21 [Compound 23, (R)—N-(1-(2,4-difluorobenzyl)-1H-pyrazol-4-yl)-9-methyl-6-oxo-6,7,8,9-tetrahydropyrido[3′,2′:4,5]pyrrolo[1,2-a]pyrazine-2-carboxamide] |  |  |  |  |  |  | Precipitate |  |  |  |  |  |  | 1.1 to 19.8 | 1.1 to 15
